Reference: patent publication US6465465B1, “Process for the treatment of erectile dysfunction and product therefor” (Arzneimittelwerk Dresden GmbH, priority 2000, dated 2002)
pEC50, pIC50: −log10 of the molar value.

Legend:
[1] = target: T1, phosphodiesterase 5 (Homo sapiens, UniProt O76074); assay: PDE 5 activity in enzyme preparations from human thrombocytes; type: biochemical; conditions: human thrombocyte enzyme, 0.5 μM [3H]cGMP; read-out: IC50, inhibition of phosphodiesterase 5
T1 construct: The thrombocytes are lysed by ultrasound and used in the PDE 5 assay; from tissue; host or cells: human thrombocytes (platelets) from citrate-anticoagulated blood, lysed by ultrasound
Description: PDE 5 activity is determined in enzyme preparations from human thrombocytes. Human blood was anti-coagulated with citrate. By centrifuging at 700 g for 20 minutes at room temperature, the thrombocyte-rich plasma in the supernatant is separated from the erythrocytes and leukocytes. The thrombocytes are lysed by ultrasound and used in the PDE 5 assay. With a few modifications, the phosphodiesterase activity is determined by the method described by Thompson et al. (Thompson, W. J., Appleman, M. M., Assay of cyclic nucleotide phosphodiesterase and resolution of multiple molecular forms of the enzyme, Adv. Cycl. Nucl. Res. 1979, 10, 69-92). The reaction mixtures contain 50 mM of tris HCl (pH 7.4), 5.5 mM of MgCl2, the inhibitors in variable concentrations, the enzyme preparation and the fuirther components necessary for determining the individual isoenzymes PDE 5 (see below). The reaction is started by the addition of the substrate, 0.5 μM of [^3H] cGMP (approximately 6,000 CPM/test). The final volume is […]. Test substances are prepared as stock solutions in DMSO. The DMSO concentration in the reaction mixture is 1% v/v. The PDE 5 activity is not affected by this concentration of DMSO. After the reaction is started by the addition of substrate, the samples are incubated for 30 minutes at 37° C. The reaction is stopped by heating the test tubes for 2 minutes at 110° C. The samples remain for a further 10 minutes in ice. The addition of 30 μL of 5′-nucleotidase (1 mg/mL, from a Crotalus adamanteus snake poison suspension) is followed by an incubation for 10 minutes at 37° C. The samples are stopped on ice. After the addition of 400 μL of a (1:1:1) mixture of Dowex, water and ethanol, the samples are mixed well and incubated once again for 15 minutes on ice. The reaction vessels are centrifuged for 20 minutes at 3,000 g. Subsequently, 200 μL aliquots of the supernatant are transferred directly to scintillation vessels. After the addition of 3 mL of scintillator, the samples are measured in the Betacounter. The in each case nonspecific enzyme activities are determined in the presence of 100 μM of IBMX for the determination of the PDE 5 and subtracted from the test values.

[2] = tested on: human atrium tissue; assay: Influencing cAMP and cGMP levels in human atrium strips; type: cell-based; conditions: 1.0 μmoles/L, 10 minutes
Description: (§1) Strips of human atrium and human corpus cavernosum are incubated for 10 minutes with the test compounds at a concentration of 1.0 μmoles/L The preparations are frozen with liquid nitrogen and the resulting levels of the cyclic nucleotides are determined.

[3] = tested on: human corpus cavernosum tissue; assay: Influencing cAMP and cGMP levels in human corpus cavernosum strips; type: cell-based; conditions: 1.0 μmoles/L, 10 minutes
Description: as §1

[4] = tested on: Rat fetal lung fibroblast cells (RFL-6); assay: Reinforcement of NO donor-induced intracellular cGMP increase in rat fetal lung fibroblasts; type: cell-based; conditions: RFL-6 cells
Excerpt: Rat fetal lung fibroblast cells (RFL-6) represent a suitable medium for investigating influence of the action of NO on the intracellular cGNP level (Ishii et al. 1991). The basic mechanism can be transferred to the smooth vascular musculature of the corpus cavemosum.
As a fuinction of the concentration, the inventive compounds reinforce the increase in the intracellular cGXD level induced by the NO donor S-nitroso-N-acetyl-D,L-penicillamine.

[5] = tested on: human corpus cavernosum strips; assay: In vitro relaxation of human corpus cavernosum pre-contracted with noradrenalin; type: cell-based; conditions: organ bath
Description: Strips of human corpus cavernosum are pre-contracted in an organ bath with noradrenalin. For test compounds, the relaxation is determined as a function of the concentration.

Compound	pIC50 [1]	melting point	also measured
5-(2,6-dichlrobenzyl)-1-ethyl-8-methoxy-3-methyl-imidazol[1,5-a]-pyrido[3,2-e]pyrazinone [Example 10]	6.88		
CCc1nc(C)c2c(=O)n(Cc3ccccc3)c3ccc(OC)nc3n12 [Example 2, 5-benzyl-1-ethyl-8-methoxy-3-methyl-imidazo[1,5-a]-pyrido[3,2-e]pyrazinone]	6.69	166 to 167 °C	
CCc1nc(C)c2c(=O)n(Cc3ccccc3F)c3ccc(OC)nc3n12 [Example 5, 1-ethyl-5-(2-fluorobenzyl)-8-methoxy-3-methyl-imidazo[1,5-a]-pyrido[3,2-e]pyrazinone]	7.23	186 to 187 °C	
CCc1nc(C)c2c(=O)n(Cc3ccc(OC)cc3)c3ccc(OC)nc3n12 [Example 7, 1-ethyl-8-methoxy-5-(4-methoxybenzyl)-8-methoxy-3-methyl-imidazo[1,5-a]-pyrido[3,2-e]pyrazinone]	6.98	156 to 158 °C	
CCc1nc(C)c2c(=O)n(Cc3ccc(F)cc3)c3ccc(OC)nc3n12 [Example 8]	6.90	189 to 191 °C	
CCc1nc(C)c2c(=O)n(Cc3ccc(Cl)cc3)c3ccc(OC)nc3n12 [Example 9, 5-(4-chlorobenzyl)-1-ethyl-8-methoxy-3-methyl-imidazo[1,5-a]-pyrido[3,2-e]pyrazinone]	6.95	201 to 202 °C	
CCc1nc(C)c2c(=O)n(Cc3c(F)cccc3F)c3ccc(OC)nc3n12 [Example 12, 5-(2,6-difluorobenzyl)-1-ethyl-8-methoxy-3-methyl-imidazo[1,5-a]-pyrido[3,2-e]pyrazinone]	7.42	177 to 180 °C	
CCCc1nn(C)c2c(=O)[nH]c(-c3cc(S(=O)(=O)N4CCN(C)CC4)ccc3OCC)nc12 [sildenafil, reference compound]			increase of cAMP level [2]: 240%; increase of cGMP level [2]: 147%; increase of cAMP level [3]: 238%; increase of cGMP level [3]: 15%

Continued by rising pIC50 [1], values first:

pIC50 [1]	melting point	Compound	also measured
7.60		5-cyclohexyl-1-ethyl-8-methoxy-3-methyl-imidazo[1,5-a]-pyrido[3,2-e]pyrazinone [Example 1]	
7.72	197 to 200 °C	CCc1nc(C)c2c(=O)n(Cc3c(F)cccc3Cl)c3ccc(OC)nc3n12 [Example 11, 5-(2-chloro-6-fluorobenzyl)-1-ethyl-8-methoxy-3-methyl-imidazo[1,5-a]-pyrido[3,2-e]pyrazinone]	increase of cAMP level [2]: 11%; increase of cGMP level [2]: 247%; increase of cAMP level [3]: 80%; increase of cGMP level [3]: 214%
7.80	183 to 185 °C	CCc1nc(C)c2c(=O)n(Cc3c(F)ccc(F)c3F)c3ccc(OC)nc3n12 [Example 13, 1-ethyl-8-methoxy-3-methyl-5-(2,3,6-trifluorobenzyl)-imidazo[1,5-a]-pyrido[3,2-e]pyrazinone]	effectiveness relative to the nonspecific PDE inhibitor IBMX ([4]; cGMP level increase): 1000 times; increase in the intracellular cGMP level ([4]; compound at 0.10 μmoles/l, NO donor S-nitroso-N-acetyl-D,L-penicillamine): significantly induces an increase; pEC50 [5]: 6.82
8.10	159 to 162 °C	CCCc1nc(C)c2c(=O)n(Cc3c(F)cccc3Cl)c3ccc(OC)nc3n12 [Example 14, 5-(2-chloro-6-fluorobenzyl)-8-methoxy-3-methyl-1-propyl-imidazo[1,5-a]-pyrido[3,2-e]pyrazinone]	
8.30	197 to 199 °C	CCCc1nc(C)c2c(=O)n(Cc3c(F)ccc(F)c3F)c3ccc(OC)nc3n12 [Example 16, 8-methoxy-3-methyl-1-propyl-5-(2,3,6-trifluorobenzyl)-imidazo[1,5-a]-pyrido[3,2-e]pyrazinone]	
8.70	171 to 172 °C	CCCc1nc(C)c2c(=O)n(Cc3c(F)cccc3F)c3ccc(OC)nc3n12 [Example 15, 5-(2,6-difluorobenzyl)-8-methoxy-3-methyl-1-propyl-imidazo[1,5-a]-pyrido[3,2-e]pyrazinone]	
